Results from ChEMBL document CHEMBL5036301, “Heteroaryl ether analogues of an antileishmanial 7-substituted 2-nitroimidazooxazine lead afford attenuated hERG risk: In vitro and in vivo appraisal” (Eur J Med Chem, 2021).
Values after ≈ are worked out from the molar mass of the structure shown.

What was measured:
Leishmania donovani [1] = experiment: Antileishmanial activity against Leishmania donovani amastigotes infected in BALB/C mouse assessed as reduction in parasite burden in liver tissue at 50 mg/kg, po administered once per day for 5 days relative to control; format: functional; details: 120 h, time 5 day
[2] = AUClast in mouse at 1 mg/kg, iv measured upto 24 hrs LC-MS/MS analysis; details: in vivo
[3] = AUClast in mouse at 25 mg/kg, po measured upto 24 hrs LC-MS/MS analysis; details: in vivo
[4] = Initial plasma concentration in mouse at 1 mg/kg, iv measured upto 24 hrs LC-MS/MS analysis
in vivo [5] = details: mouse, po, 25 mg/kg
MRC5 = experiment: Cytotoxicity against human MRC5 cells assessed as cell viability after 72 hrs by fluorimetric analysis; format: ADME, cell-based; details: MRC5, 72 h
Leishmania donovani [6] = experiment: Antileishmanial activity against Leishmania donovani amastigotes infected in mouse J774A.1 cells incubated for 72 hrs by luciferase assay; format: functional, organism-based; details: J774.A1, 72 h
[7] = Kinetic solubility of compound in water at pH7 by HPLC analysis; details: pH 7
Leishmania infantum = experiment: Antileishmanial activity against Leishmania infantum MHOM/MA(BE)/67 amastigotes infected in macrophages assessed as reduction in parasite burden by giemsa staining based microscopic analysis; format: functional, organism-based
in vivo [8] = details: mouse, po, 25 mg/kg; remark: listed apart in the source
Trypanosoma cruzi = experiment: Antitrypanosomal activity against Trypanosoma cruzi Tulahuen CL2 infected in human MRC-5 cells assessed as parasite growth; format: functional, organism-based; details: Tulahuen CL2, MRC5
[9] = Clearance in mouse at 1 mg/kg, iv measured upto 24 hrs LC-MS/MS analysis; details: in vivo
in vivo [10] = details: mouse, po, 25 mg/kg; remark: listed apart in the source
[11] = test system: Mycobacterium tuberculosis; experiment: Antitubercular activity against Mycobacterium tuberculosis H37Rv assessed as reduction in microbial growth under anaerobic condition by luminescence analysis; format: functional
[12] = Half life in mouse at 1 mg/kg, iv measured upto 24 hrs LC-MS/MS analysis; details: in vivo
[13] = test system: Mycobacterium tuberculosis; experiment: Antitubercular activity against Mycobacterium tuberculosis H37Rv assessed as reduction in microbial growth under aerobic condition by luminescence analysis; format: functional
[14] = Volume of distribution at steady state in mouse at 1 mg/kg, iv measured upto 24 hrs LC-MS/MS analysis; details: in vivo
[15] = Selectivity index, ratio IC50 for cytotoxicity against human MRC5 cells to IC50 for antileishmanial activity against Leishmania infantum MHOM/MA(BE)/67 amastigotes infected in macrophages
[16] = Stability of compound in hamster liver microsomes assessed as percentage of parent compound remaining at 1 uM measured after 1 hr; details: chinese hamster
[17] = Stability of compound in human liver microsomes assessed as percentage of parent compound remaining at 1 uM measured after 1 hr
[18] = Stability of compound in CD-1 mouse liver microsomes assessed as percentage of parent compound remaining at 1 uM measured after 1 hr
hERG (KCNH2) = hERG (KCNH2) (Homo sapiens, UniProt Q12809); experiment: Inhibition of human ERG expressed in HEK293 cells at 10 uM relative to control; format: cell-based; details: HEK293 cells expressing human ERG
hERG (KCNH2), sequence (Q12809 whole entry): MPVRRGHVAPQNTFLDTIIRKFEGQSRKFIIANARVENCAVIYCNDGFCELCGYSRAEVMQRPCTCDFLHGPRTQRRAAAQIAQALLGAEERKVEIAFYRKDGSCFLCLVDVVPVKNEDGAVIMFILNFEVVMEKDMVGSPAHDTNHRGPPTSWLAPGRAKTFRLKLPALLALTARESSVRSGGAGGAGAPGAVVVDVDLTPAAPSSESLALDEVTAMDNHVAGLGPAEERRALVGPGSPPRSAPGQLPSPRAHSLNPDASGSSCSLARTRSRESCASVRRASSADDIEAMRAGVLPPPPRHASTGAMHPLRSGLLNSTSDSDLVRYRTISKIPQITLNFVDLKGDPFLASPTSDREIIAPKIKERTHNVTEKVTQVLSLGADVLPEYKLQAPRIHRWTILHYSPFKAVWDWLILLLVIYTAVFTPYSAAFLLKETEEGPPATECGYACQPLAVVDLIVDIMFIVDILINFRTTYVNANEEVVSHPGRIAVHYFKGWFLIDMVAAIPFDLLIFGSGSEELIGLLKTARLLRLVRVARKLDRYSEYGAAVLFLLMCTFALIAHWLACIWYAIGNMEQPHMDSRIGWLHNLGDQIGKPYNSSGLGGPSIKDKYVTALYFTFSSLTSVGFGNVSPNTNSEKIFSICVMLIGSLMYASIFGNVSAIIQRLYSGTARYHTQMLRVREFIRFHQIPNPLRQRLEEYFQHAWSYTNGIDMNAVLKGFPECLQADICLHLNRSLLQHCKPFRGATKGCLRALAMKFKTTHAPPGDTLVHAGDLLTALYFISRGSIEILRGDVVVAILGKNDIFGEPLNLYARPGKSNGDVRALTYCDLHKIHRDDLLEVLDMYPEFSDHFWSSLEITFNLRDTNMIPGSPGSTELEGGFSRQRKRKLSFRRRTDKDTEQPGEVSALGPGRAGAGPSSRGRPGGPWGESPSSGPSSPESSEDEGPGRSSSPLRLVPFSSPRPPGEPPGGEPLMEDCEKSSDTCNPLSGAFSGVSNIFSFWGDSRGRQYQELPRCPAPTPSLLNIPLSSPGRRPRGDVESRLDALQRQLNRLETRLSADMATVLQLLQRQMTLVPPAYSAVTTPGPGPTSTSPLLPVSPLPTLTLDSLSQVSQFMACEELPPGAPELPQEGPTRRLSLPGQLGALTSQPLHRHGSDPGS

For C[C@@]1(COc2ccc(C(F)(F)F)nc2)CCn2cc([N+](=O)[O-])nc2O1, the inhibition in vivo at 50 mg/kg (Leishmania donovani [1]) was 46%, the AUC(0-t) at 24 h [2] was 2760 ng·h/mL and the AUC(0-t) at 24 h [3] was 37200 ng·h/mL. For the same compound, the C0 at 24 h [4] was 1900 ng/mL, the Cmax at 24 h (in vivo [5]) was 8000 ng/mL and the IC50 (MRC5) was over 64000 nM. The IC50 (Leishmania donovani [6]) was 740 nM, the solubility kinetic [7] was 15 µg/mL (≈ 41.9 µM) and the IC50 (Leishmania infantum) was 2300 nM. The bioavailability at 24 h (in vivo [8]) was 54%, the IC50 (Trypanosoma cruzi) was 1800 nM and the clearance at 24 h [9] was 6 mL/min/kg. For the same compound, the Tmax at 24 h (in vivo [10]) was 2 h, the MIC [11] was over 128 µM and the half-life at 24 h [12] was 1.2 h. For the same compound, the MIC [13] was over 128 µM and the Vd at 24 h [14] was 0.75 L/kg.

With CC1(COc2cc(C(F)(F)F)ccn2)CCn2cc([N+](=O)[O-])nc2O1 (configuration not stated) the selectivity ratio [15] was over 142, the IC50 (MRC5) was over 64000 nM and the IC50 (Leishmania infantum) was 450 nM. The IC50 (Trypanosoma cruzi) was 860 nM.

Compound CC1(COc2ncc(C(F)(F)F)cn2)CCn2cc([N+](=O)[O-])nc2O1 (configuration not stated) has an inhibition in vivo at 50 mg/kg (Leishmania donovani [1]) of 35%, a remaining at 1 h, 1 µM [16] of 40% and an IC50 (MRC5) of over 64000 nM. It also gave a solubility kinetic [7] of 9.3 µg/mL (≈ 25.9 µM), an IC50 (Leishmania infantum) of over 64000 nM and a remaining at 1 h, 1 µM [17] of 88%. The IC50 (Trypanosoma cruzi) was 3100 nM and the remaining at 1 h, 1 µM [18] was 86%.

CC1(COc2ccc(C(F)(F)F)cc2)CCn2cc([N+](=O)[O-])nc2O1 (configuration not stated) showed a selectivity ratio [15] of over 400, an IC50 (MRC5) of over 64000 nM and an IC50 (Leishmania donovani [6]) of 160 nM. The IC50 (Leishmania infantum) was 160 nM, the IC50 (Trypanosoma cruzi) was 150 nM and the MIC [11] was 4.1 µM. It also gave an MIC [13] of 0.8 µM.

With CC1(COc2ccc(Oc3ccccc3)cc2)CCn2cc([N+](=O)[O-])nc2O1 (configuration not stated) the selectivity ratio [15] was over 376, the IC50 (MRC5) was over 64000 nM and the IC50 (Leishmania donovani [6]) was 170 nM. For the same compound, the IC50 (Leishmania infantum) was 170 nM, the IC50 (Trypanosoma cruzi) was 250 nM and the MIC [11] was 2.7 µM. The MIC [13] was 0.7 µM.

Compound CC1(COc2ncc(C(F)(F)F)cc2F)CCn2cc([N+](=O)[O-])nc2O1 (configuration not stated) has an inhibition in vivo at 50 mg/kg (Leishmania donovani [1]) of 56%, a selectivity ratio [15] of over 136 and a remaining at 1 h, 1 µM [16] of 0.4%. It also gave an IC50 (MRC5) of over 64000 nM, a solubility kinetic [7] of 13 µg/mL (≈ 34.6 µM) and an IC50 (Leishmania infantum) of 470 nM. For the same compound, the remaining at 1 h, 1 µM [17] was 64%, the IC50 (Trypanosoma cruzi) was 730 nM and the remaining at 1 h, 1 µM [18] was 44%.

With O=[N+]([O-])c1cn2c(n1)OC(COc1cc(C(F)(F)F)ccn1)CC2 (configuration not stated) the IC50 (MRC5) was over 64000 nM, the IC50 (Leishmania infantum) was over 64000 nM and the IC50 (Trypanosoma cruzi) was 1000 nM.

Work on CC1(COc2ccc(F)cn2)CCn2cc([N+](=O)[O-])nc2O1 (configuration not stated) yielded a selectivity ratio [15] of over 40, an IC50 (MRC5) of over 64000 nM and an IC50 (Leishmania donovani [6]) of 260 nM. For the same compound, the IC50 (Leishmania infantum) was 1600 nM, the IC50 (Trypanosoma cruzi) was 3300 nM and the MIC [11] was 19 µM. The MIC [13] was 2.3 µM.

In the case of CC1(COc2cccc(C(F)(F)F)n2)CCn2cc([N+](=O)[O-])nc2O1 (configuration not stated), the selectivity ratio [15] is reported as over 110, the IC50 (MRC5) is reported as over 64000 nM and the IC50 (Leishmania infantum) is reported as 580 nM. For the same compound, the IC50 (Trypanosoma cruzi) was 440 nM.

O=[N+]([O-])c1cn2c(n1)OC(COc1ccc(C(F)(F)F)nc1)CC2 (configuration not stated) showed an AUC(0-t) at 24 h [2] of 3100 ng·h/mL, an AUC(0-t) at 24 h [3] of 15100 ng·h/mL and a C0 at 24 h [4] of 2300 ng/mL. It also gave a Cmax at 24 h (in vivo [5]) of 5800 ng/mL, an IC50 (MRC5) of over 64000 nM and an IC50 (Leishmania donovani [6]) of 110 nM. It also gave a solubility kinetic [7] of 29 µg/mL (≈ 84.2 µM), an IC50 (Leishmania infantum) of over 64000 nM and a bioavailability at 24 h (in vivo [8]) of 39%. For the same compound, the inhibition at 10 µM (hERG (KCNH2)) was 4%, the IC50 (Trypanosoma cruzi) was 1100 nM and the clearance at 24 h [9] was 5.4 mL/min/kg. For the same compound, the Tmax at 24 h (in vivo [10]) was 0.25 h, the half-life at 24 h [12] was 1.1 h and the Vd at 24 h [14] was 0.47 L/kg.

In the case of CC1(COc2ccc(Cl)nc2)CCn2cc([N+](=O)[O-])nc2O1 (configuration not stated), the selectivity ratio [15] is reported as over 23, the IC50 (MRC5) is reported as over 64000 nM and the IC50 (Leishmania donovani [6]) is reported as 860 nM. The IC50 (Leishmania infantum) was 2800 nM and the IC50 (Trypanosoma cruzi) was 930 nM.

CC1(COc2ncc(Cl)cn2)CCn2cc([N+](=O)[O-])nc2O1 (configuration not stated) showed an IC50 (MRC5) of over 64000 nM, an IC50 (Leishmania donovani [6]) of 320 nM and an IC50 (Leishmania infantum) of over 64000 nM. For the same compound, the IC50 (Trypanosoma cruzi) was 3700 nM.

Compound CC1(COc2ccccc2)CCn2cc([N+](=O)[O-])nc2O1 (configuration not stated) has a selectivity ratio [15] of over 123, an IC50 (MRC5) of over 64000 nM and an IC50 (Leishmania donovani [6]) of 300 nM. It also gave an IC50 (Leishmania infantum) of 520 nM, an IC50 (Trypanosoma cruzi) of 590 nM and an MIC [11] of 8.1 µM. The MIC [13] was 1.3 µM.
